Molecular target: recombinant mTOR (FLAG-tagged, residues 1362-2549) (Homo sapiens, UniProt P42345)
Assay: In vitro mTOR kinase assay (Test (a), AlphaScreen)
Assay type: biochemical
Conditions: ATP 20 μM, read-out: Test (a): IC50 versus mTOR kinase
Method in brief: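 AlphaScreen read-out: a phospho-T389 p70 S6K antibody on acceptor beads captures the phosphorylated biotin-peptide on donor beads, with signal loss indicating inhibition.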

recombinant mTOR (FLAG-tagged, residues 1362-2549), sequence (P42345 1362-2549): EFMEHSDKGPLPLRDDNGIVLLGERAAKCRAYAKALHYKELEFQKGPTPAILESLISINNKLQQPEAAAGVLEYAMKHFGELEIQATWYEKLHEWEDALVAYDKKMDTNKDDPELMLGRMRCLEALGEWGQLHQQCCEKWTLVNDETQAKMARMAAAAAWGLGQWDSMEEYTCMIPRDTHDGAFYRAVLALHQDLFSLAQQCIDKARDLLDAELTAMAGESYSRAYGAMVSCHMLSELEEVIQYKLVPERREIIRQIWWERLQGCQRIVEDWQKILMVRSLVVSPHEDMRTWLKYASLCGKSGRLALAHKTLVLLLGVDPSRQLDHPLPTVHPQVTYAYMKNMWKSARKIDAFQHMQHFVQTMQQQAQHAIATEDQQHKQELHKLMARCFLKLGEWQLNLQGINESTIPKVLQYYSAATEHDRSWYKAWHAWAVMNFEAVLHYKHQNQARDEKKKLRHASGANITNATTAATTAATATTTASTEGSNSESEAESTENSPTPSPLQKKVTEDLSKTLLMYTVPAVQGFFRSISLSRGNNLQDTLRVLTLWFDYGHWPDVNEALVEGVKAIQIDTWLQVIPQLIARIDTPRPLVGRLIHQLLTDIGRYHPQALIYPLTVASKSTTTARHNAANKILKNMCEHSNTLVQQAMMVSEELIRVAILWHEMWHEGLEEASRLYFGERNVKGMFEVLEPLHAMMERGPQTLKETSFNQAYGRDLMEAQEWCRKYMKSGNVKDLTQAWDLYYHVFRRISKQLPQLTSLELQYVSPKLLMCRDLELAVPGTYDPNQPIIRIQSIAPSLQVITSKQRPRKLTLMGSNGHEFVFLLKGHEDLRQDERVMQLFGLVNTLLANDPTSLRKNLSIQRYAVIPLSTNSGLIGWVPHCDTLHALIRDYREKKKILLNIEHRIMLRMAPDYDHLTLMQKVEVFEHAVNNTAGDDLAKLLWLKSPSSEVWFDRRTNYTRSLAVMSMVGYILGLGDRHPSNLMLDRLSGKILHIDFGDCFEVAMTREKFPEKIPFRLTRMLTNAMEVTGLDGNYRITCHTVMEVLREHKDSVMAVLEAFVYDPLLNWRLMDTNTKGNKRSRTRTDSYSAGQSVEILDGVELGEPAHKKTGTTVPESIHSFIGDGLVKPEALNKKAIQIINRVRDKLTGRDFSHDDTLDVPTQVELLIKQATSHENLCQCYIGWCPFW

| IC50 | SMILES |
| --- | --- |
| 48 nM | CCNC(=O)Nc1c(F)cc(-c2nc(N3CCOC[C@@H]3C)cc(C(C)(C)S(C)(=O)=O)n2)cc1F [Example 24ac, 3-[2,6-difluoro-4-[4-[(3S)-3-methylmorpholin-4-yl]-6-(2-methylsulfonylpropan-2-yl)pyrimidin-2-yl]phenyl]-1-ethyl-urea] |
| 37 nM | CNC(=O)Nc1ccc(-c2nc(CS(=O)(=O)CC(N)=O)cc(N3CCOC[C@@H]3C)n2)cc1 [Example 26a, 2-[[2-[4-(methylcarbamoylamino)phenyl]-6-[(3S)-3-methylmorpholin-4-yl]pyrimidin-4-yl]methylsulfonyl]acetamide] |
| 1700 nM | CCc1cccc(NC(=O)Nc2ccc(-c3nc(CS(C)(=O)=O)cc(N4CCOCC4)n3)cc2)c1 [Example 7o, 1-(3-ethylphenyl)-3-[4-[4-(methylsulfonylmethyl)-6-morpholin-4-yl-pyrimidin-2-yl]phenyl]urea] |
| 1400 nM | C[C@H]1COCCN1c1cc(C(C)(C)S(C)(=O)=O)nc(-c2cnc(NC(=O)NCc3cnn(C)c3)s2)n1 [Example 47c, 1-[5-[4-[(3S)-3-methylmorpholin-4-yl]-6-(2-methylsulfonylpropan-2-yl)pyrimidin-2-yl]-1,3-thiazol-2-yl]-3-[(1-methylpyrazol-4-yl)methyl]urea] |
| 190 nM | C[C@H]1COCCN1c1cc(CO)nc(-c2ccc(NC(=O)NC3CC3)cc2)n1 [Example 42, 3-Cyclopropyl-1-[4-[4-(hydroxymethyl)-6-[(3S)-3-methylmorpholin-4-yl]pyrimidin-2-yl]phenyl]urea] |
| 920 nM | CC(C)(C)CNC(=O)Nc1ccc(-c2nc(CS(C)(=O)=O)cc(N3CCOCC3)n2)cc1 [Example 45p, 1-(2,2-dimethylpropyl)-3-[4-[4-(methylsulfonylmethyl)-6-morpholin-4-yl-pyrimidin-2-yl]phenyl]urea] |
| 840 nM | CNC(=O)Nc1ccc(-c2nc(CS(=O)(=O)c3nccn3C)cc(N3CCOC[C@@H]3C)n2)cc1 [Example 33, 3-Methyl-1-[4-[4-[(1-methylimidazol-2-yl)sulfonylmethyl]-6-[(3S)-3-methylmorpholin-4-yl]pyrimidin-2-yl]phenyl]urea] |
| 560 nM | Cc1oncc1NC(=O)Nc1ccc(-c2nc(CS(C)(=O)=O)cc(N3CCOC[C@@H]3C)n2)cc1 [Example 22e, 3-[4-[4-[(3S)-3-methylmorpholin-4-yl]-6-(methylsulfonylmethyl)pyrimidin-2-yl]phenyl]-1-(5-methyl-1,2-oxazol-4-yl)urea] |
| 5800 nM | C[C@H]1COCCN1c1cc(C(C)(C)S(C)(=O)=O)nc(N2CCC(NC(=O)NCc3cnn(C)c3)CC2)n1 [Example 24q, 1-[1-[4-[(3S)-3-methylmorpholin-4-yl]-6-(2-methylsulfonylpropan-2-yl)pyrimidin-2-yl]-4-piperidyl]-3-[(1-methylpyrazol-4-yl)methyl]urea] |
| 180 nM | CNC(=O)Nc1ccn(-c2nc(CS(C)(=O)=O)cc(N3CCOC[C@@H]3C)n2)n1 [Example 24k, 3-methyl-1-[1-[4-[(3S)-3-methylmorpholin-4-yl]-6-(methylsulfonylmethyl)pyrimidin-2-yl]pyrazol-3-yl]urea] |
| 310 nM | C[C@H]1COCCN1c1cc(CS(C)(=O)=O)nc(-c2ccc(NC(=O)NCc3cnn(C)c3)cc2)n1 [Example 24g, 1-[4-[4-[(3S)-3-methylmorpholin-4-yl]-6-(methylsulfonylmethyl)pyrimidin-2-yl]phenyl]-3-[(1-methylpyrazol-4-yl)methyl]urea] |
| 200 nM | CCCNC(=O)Nc1ccc(-c2nc(CS(C)(=O)=O)cc(N3CCOCC3)n2)cc1 [Example 7n, 3-[4-[4-(methylsulfonylmethyl)-6-morpholin-4-yl-pyrimidin-2-yl]phenyl]-1-propyl-urea] |
| 58 nM | Cc1csc(S(=O)(=O)Cc2cc(N3CCOC[C@@H]3C)nc(-c3ccc(NC(=O)NC4CC4)cc3)n2)n1 [Example 43i, 3-cyclopropyl-1-[4-[4-[(3S)-3-methylmorpholin-4-yl]-6-[(4-methyl-1,3-thiazol-2-yl)sulfonylmethyl]pyrimidin-2-yl]phenyl]urea] |
